Experimental data taken from patent US20240174662A1, “SMALL MOLECULE INHIBITORS OF SALT INDUCIBLE KINASES” (Janssen Biotech, Inc., priority 2021, published 2024).

Each compound was assayed against SIK2 (Homo sapiens (Human), UniProt Q9H0K1) (assay: SIK2 Enzymatic Assay Version 2 (High ATP)). Settings: 3 mM ATP and 200 μM HDAC5tide final, ADP-Glo Max luminescence.
SIK2, sequence (Q9H0K1 whole entry, species assumed): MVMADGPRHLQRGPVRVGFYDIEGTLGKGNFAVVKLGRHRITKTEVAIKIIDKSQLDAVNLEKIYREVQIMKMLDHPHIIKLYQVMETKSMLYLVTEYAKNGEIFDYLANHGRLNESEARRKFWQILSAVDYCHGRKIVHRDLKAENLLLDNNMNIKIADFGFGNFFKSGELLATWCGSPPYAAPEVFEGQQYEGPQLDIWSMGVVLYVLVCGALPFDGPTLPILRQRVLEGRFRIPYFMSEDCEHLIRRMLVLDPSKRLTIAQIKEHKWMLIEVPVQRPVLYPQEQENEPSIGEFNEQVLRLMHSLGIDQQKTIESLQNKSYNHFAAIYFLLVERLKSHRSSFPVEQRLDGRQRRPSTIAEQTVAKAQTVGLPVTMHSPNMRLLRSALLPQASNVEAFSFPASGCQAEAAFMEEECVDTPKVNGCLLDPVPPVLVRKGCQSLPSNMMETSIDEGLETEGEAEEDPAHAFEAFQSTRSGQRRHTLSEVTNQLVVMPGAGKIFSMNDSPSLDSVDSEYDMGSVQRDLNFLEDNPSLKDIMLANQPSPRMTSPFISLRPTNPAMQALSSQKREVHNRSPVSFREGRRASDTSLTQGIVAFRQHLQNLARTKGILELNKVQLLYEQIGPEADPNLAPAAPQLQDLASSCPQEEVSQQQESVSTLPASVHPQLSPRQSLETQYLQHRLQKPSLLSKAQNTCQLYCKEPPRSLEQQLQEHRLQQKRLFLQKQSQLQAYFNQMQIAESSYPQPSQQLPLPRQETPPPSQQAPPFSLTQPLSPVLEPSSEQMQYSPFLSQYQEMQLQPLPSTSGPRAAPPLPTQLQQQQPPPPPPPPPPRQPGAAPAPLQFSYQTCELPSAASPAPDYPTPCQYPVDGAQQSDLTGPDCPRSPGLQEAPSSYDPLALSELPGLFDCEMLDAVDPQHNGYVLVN
Assay type: biochemical
Method in brief: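 Luminescent ADP-Glo Max read-out: depletion reagent 2 h, then detection reagent 1 h. Before the reaction, compounds were incubated 30 min with enzyme added at 6 nM (twice final concentration), with all steps at room temperature.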
CN1CC[C@H](Oc2cnn(C)c2-c2ccn3nc(Nc4cnccn4)cc3c2)C1 [Example 450, 5-[2-methyl-4-[(3S)-1-methylpyrrolidin-3-yl]oxy-pyrazol-3-yl]-N-pyrazin-2-yl-pyrazolo[1,5-a]pyridin-2-amine] gave an IC50 of 75.1 nM. Cc1ccc(Nc2cc3cc(-c4c(O[C@H]5CCN(C)C5)cnn4C)ccn3n2)cn1 [Example 451, 5-[2-methyl-4-[(3S)-1-methylpyrrolidin-3-yl]oxy-pyrazol-3-yl]-N-(6-methyl-3-pyridyl)pyrazolo[1,5-a]pyridin-2-amine] was tested, and the IC50 was 107 nM. With CN1CC[C@H](Oc2cnn(C)c2-c2ccn3nc(Nc4ccccn4)cc3c2)C1 [Example 452, 5-[2-methyl-4-[(3S)-1-methylpyrrolidin-3-yl]oxy-pyrazol-3-yl]-N-(2-pyridyl)pyrazolo[1,5-a]pyridin-2-amine] the IC50 was 135 nM. Work on CN1CC[C@H](Oc2cnn(C)c2-c2ccn3nc(Nc4cnc(C(F)(F)F)cn4)cc3c2)C1 [Example 453, 5-[2-methyl-4-[(3S)-1-methylpyrrolidin-3-yl]oxy-pyrazol-3-yl]-N-[5-(trifluoromethyl)pyrazin-2-yl]pyrazolo[1,5-a]pyridin-2-amine] yielded an IC50 of 162 nM. For Cc1cnc(Nc2cc3cc(-c4c(O[C@H]5CCN(C)C5)cnn4C)ccn3n2)cn1 [Example 454, 5-[2-methyl-4-[(3S)-1-methylpyrrolidin-3-yl]oxy-pyrazol-3-yl]-N-(5-methylpyrazin-2-yl)pyrazolo[1,5-a]pyridin-2-amine], the IC50 was 81.3 nM. Compound CN1CC[C@H](Oc2cnn(C)c2-c2ccn3nc(Nc4ccncn4)cc3c2)C1 [Example 455, 5-[2-methyl-4-[(3S)-1-methylpyrrolidin-3-yl]oxy-pyrazol-3-yl]-N-pyrimidin-4-yl-pyrazolo[1,5-a]pyridin-2-amine] has an IC50 of 137 nM. For Cc1nccc(Nc2cc3cc(-c4c(O[C@H]5CCN(C)C5)cnn4C)ccn3n2)n1 [Example 456, 5-[2-methyl-4-[(3S)-1-methylpyrrolidin-3-yl]oxy-pyrazol-3-yl]-N-(2-methylpyrimidin-4-yl)pyrazolo[1,5-a]pyridin-2-amine], the IC50 was 102 nM. CN1CC[C@H](Oc2cnn(C)c2-c2ccn3nc(Nc4cc(C(F)(F)F)cnn4)cc3c2)C1 [Example 457, 5-[2-methyl-4-[(3S)-1-methylpyrrolidin-3-yl]oxy-pyrazol-3-yl]-N-[5-(trifluoromethyl)pyridazin-3-yl]pyrazolo[1,5-a]pyridin-2-amine] was tested, and the IC50 was 165 nM. CN1CC[C@H](Oc2cnn(C)c2-c2ccn3nc(Nc4ccnc(C(F)(F)F)n4)cc3c2)C1 [Example 458, 5-[2-methyl-4-[(3S)-1-methylpyrrolidin-3-yl]oxy-pyrazol-3-yl]-N-[2-(trifluoromethyl)pyrimidin-4-yl]pyrazolo[1,5-a]pyridin-2-amine] showed an IC50 of 167 nM. In the case of CN1CC[C@H](Oc2cnn(C)c2-c2ccn3nc(Nc4cc(C(F)(F)F)ncn4)cc3c2)C1 [Example 459, 5-[2-methyl-4-[(3S)-1-methylpyrrolidin-3-yl]oxy-pyrazol-3-yl]-N-[6-(trifluoromethyl)pyrimidin-4-yl]pyrazolo[1,5-a]pyridin-2-amine], the IC50 is reported as 145 nM. CN1CC[C@H](Oc2cnn(C)c2-c2ccn3nc(Nc4cnc5c(ccn5C)c4)cc3c2)C1 [Example 460, 1-methyl-N-[5-[2-methyl-4-[(3S)-1-methylpyrrolidin-3-yl]oxy-pyrazol-3-yl]pyrazolo[1,5-a]pyridin-2-yl]pyrrolo[2,3-b]pyridin-5-amine] showed an IC50 of 164 nM. Work on COCc1cc(Nc2cc3cc(-c4c(O[C@H]5CCN(C)C5)cnn4C)ccn3n2)ncn1 [Example 461, N-[6-(methoxymethyl)pyrimidin-4-yl]-5-[2-methyl-4-[(3S)-1-methylpyrrolidin-3-yl]oxy-pyrazol-3-yl]pyrazolo[1,5-a]pyridin-2-amine] yielded an IC50 of 72.4 nM. In the case of CN1CC[C@H](Oc2cnn(C)c2-c2ccn3nc(Nc4ccc(C5CC5)nn4)cc3c2)C1 [Example 462, N-(6-cyclopropylpyridazin-3-yl)-5-[2-methyl-4-[(3S)-1-methylpyrrolidin-3-yl]oxy-pyrazol-3-yl]pyrazolo[1,5-a]pyridin-2-amine], the IC50 is reported as 86.5 nM. In the case of Cn1ncc(COC2CCNCC2)c1-c1ccn2nc(NC(=O)C3CC3)cc2c1 [Example 463, N-[5-[2-methyl-4-(4-piperidyloxymethyl)pyrazol-3-yl]pyrazolo[1,5-a]pyridin-2-yl]cyclopropanecarboxamide], the IC50 is reported as 74.5 nM. CN1CC[C@H](OCc2cnn(C)c2-c2ccn3nc(NC(=O)C4CC4)cc3c2)C1 [Example 464, N-[5-[2-methyl-4-[[(3S)-1-methylpyrrolidin-3-yl]oxymethyl]pyrazol-3-yl]pyrazolo[1,5-a]pyridin-2-yl]cyclopropanecarboxamide] showed an IC50 of 82.8 nM. Cn1ncc(CO[C@@H]2CNC[C@H]2F)c1-c1ccn2nc(NC(=O)C3CC3)cc2c1 [Example 466, N-[5-[4-[[(3R,4R)-4-fluoropyrrolidin-3-yl]oxymethyl]-2-methyl-pyrazol-3-yl]pyrazolo[1,5-a]pyridin-2-yl]cyclopropanecarboxamide] showed an IC50 of 80.7 nM. CN1C[C@@H](F)[C@H](OCc2cnn(C)c2-c2ccn3nc(NC(=O)C4CC4)cc3c2)C1 [Example 467, N-[5-[4-[[(3R,4R)-4-fluoro-1-methyl-pyrrolidin-3-yl]oxymethyl]-2-methyl-pyrazol-3-yl]pyrazolo[1,5-a]pyridin-2-yl]cyclopropanecarboxamide] showed an IC50 of 113 nM. CCC1(OCc2cnn(C)c2-c2ccn3nc(NC(=O)C4CC4)cc3c2)CN(C)C1 [Example 468, N-[5-[4-[(3-ethyl-1-methyl-azetidin-3-yl)oxymethyl]-2-methyl-pyrazol-3-yl]pyrazolo[1,5-a]pyridin-2-yl]cyclopropanecarboxamide] gave an IC50 of 81.7 nM. Compound CN1CC[C@H](Oc2cnn(C(F)F)c2-c2ccn3nc(NC(=O)C4CC4)cc3c2)C1 [Example 470, N-[5-[2-(difluoromethyl)-4-[(3S)-1-methylpyrrolidin-3-yl]oxy-pyrazol-3-yl]pyrazolo[1,5-a]pyridin-2-yl]cyclopropanecarboxamide] has an IC50 of 143 nM. Compound Cn1ncc(O[C@H]2CCNC2)c1-c1ccc2nc(NC(=O)C3CC3)cn2c1 [Example 471, N-[6-[2-methyl-4-[(3S)-pyrrolidin-3-yl]oxy-pyrazol-3-yl]imidazo[1,2-a]pyridin-2-yl]cyclopropanecarboxamide] has an IC50 of 55.8 nM. CN1CC[C@H](Oc2cnn(C)c2-c2ccc3nc(NC(=O)C4CC4)cn3c2)C1 [Example 472, N-[6-[2-methyl-4-[(3S)-1-methylpyrrolidin-3-yl]oxy-pyrazol-3-yl]imidazo[1,2-a]pyridin-2-yl]cyclopropanecarboxamide] gave an IC50 of 106 nM. Compound CN1CC[C@@H]1COc1cnn(C)c1-c1ccn2nc(NC(=O)[C@@H]3C[C@@H]3C#N)cc2c1 [Example 475, cis-2-cyano-N-[5-[2-methyl-4-[(1-methylazetidin-2-yl)methoxy]pyrazol-3-yl]pyrazolo[1,5-a]pyridin-2-yl]cyclopropanecarboxamide] has an IC50 of 51.9 nM. CCN1CC[C@@H]1COc1cnn(C)c1-c1ccc2nc(Nc3cc(C)nc(C)n3)cn2c1 [Example 476, N-(2,6-dimethylpyrimidin-4-yl)-6-[4-[[(2R)-1-ethylazetidin-2-yl]methoxy]-2-methyl-pyrazol-3-yl]imidazo[1,2-a]pyridin-2-amine] was tested, and the IC50 was 3.1 nM. CCN1CC[C@@H]1COc1cnn(C(F)F)c1-c1ccn2nc(Nc3ccnc(C)n3)cc2c1 [Example 477, 5-[2-(difluoromethyl)-4-[[(2R)-1-ethylazetidin-2-yl]methoxy]pyrazol-3-yl]-N-(2-methylpyrimidin-4-yl)pyrazolo[1,5-a]pyridin-2-amine] gave an IC50 of 2.1 nM. Work on CCN1CC[C@@H]1COc1cnn(C(F)F)c1-c1ccn2nc(Nc3cc(C)ncn3)cc2c1 [Example 478, 5-[2-(difluoromethyl)-4-[[(2R)-1-ethylazetidin-2-yl]methoxy]pyrazol-3-yl]-N-(6-methylpyrimidin-4-yl)pyrazolo[1,5-a]pyridin-2-amine] yielded an IC50 of 3 nM. With CCN1CC[C@@H]1COc1cnn(C(F)F)c1-c1ccn2nc(Nc3cc(C)nc(C)n3)cc2c1 [Example 479, 5-[2-(difluoromethyl)-4-[[(2R)-1-ethylazetidin-2-yl]methoxy]pyrazol-3-yl]-N-(2,6-dimethylpyrimidin-4-yl)pyrazolo[1,5-a]pyridin-2-amine] the IC50 was 1.1 nM. CCN1CC[C@@H]1COc1cnn(C(F)F)c1-c1ccn2nc(Nc3ccc(C)nn3)cc2c1 [Example 480, 5-[2-(difluoromethyl)-4-[[(2R)-1-ethylazetidin-2-yl]methoxy]pyrazol-3-yl]-N-(6-methylpyridazin-3-yl)pyrazolo[1,5-a]pyridin-2-amine] was tested, and the IC50 was 10 nM. Compound CCN1CC[C@@H]1COc1cnn(C(F)F)c1-c1ccn2nc(Nc3ccnc(OC)n3)cc2c1 [Example 481, 5-[2-(difluoromethyl)-4-[[(2R)-1-ethylazetidin-2-yl]methoxy]pyrazol-3-yl]-N-(2-methoxypyrimidin-4-yl)pyrazolo[1,5-a]pyridin-2-amine] has an IC50 of 17.6 nM. CCN1CC[C@@H]1COc1cnn(C(F)F)c1-c1ccn2nc(Nc3cncc(C)n3)cc2c1 [Example 482, 5-[2-(difluoromethyl)-4-[[(2R)-1-ethylazetidin-2-yl]methoxy]pyrazol-3-yl]-N-(6-methylpyrazin-2-yl)pyrazolo[1,5-a]pyridin-2-amine] showed an IC50 of 1.8 nM. Work on CCN1CC[C@@H]1COc1cnn(C(F)F)c1-c1ccn2nc(Nc3cc(C)c(OC)nn3)cc2c1 [Example 483, 5-[2-(difluoromethyl)-4-[[(2R)-1-ethylazetidin-2-yl]methoxy]pyrazol-3-yl]-N-(6-methoxy-5-methyl-pyridazin-3-yl)pyrazolo[1,5-a]pyridin-2-amine] yielded an IC50 of 0.9 nM. Compound CCN1CC[C@@H]1COc1cnn(C(F)F)c1-c1ccn2nc(Nc3cc(C)c(=O)n(C)n3)cc2c1 [Example 484, 6-[[5-[2-(difluoromethyl)-4-[[(2R)-1-ethylazetidin-2-yl]methoxy]pyrazol-3-yl]pyrazolo[1,5-a]pyridin-2-yl]amino]-2,4-dimethyl-pyridazin-3-one] has an IC50 of 0.9 nM.
